Measurements reported in patent publication US20030017965A1, “Methods for treating certain diseases using naaladase inhibitors” (priority 1998, published 2003).
pIC50: −log10 of the molar value.

What was measured:
ischemic cultures = test: Neuroprotection in ischemic cell culture model of stroke with neutralizing antibodies; format: cell-based; conditions: for neuroprotective effect in presence of FGF antibody: FGF neutralizing antibody added; for neuroprotective effect in presence of TGF-β neutralizing antibodies: TGF-β neutralizing antibodies added
Method: (§1) The compounds of the invention were used to produce a neuroprotective effect in both in vitro and in vivo cell culture models of stroke.
TGF-β neutralizing antibodies were then added to determine if the neuroprotective effect would be blocked. The neuroprotective effect of 2-(phosphonomethyl)-pentanedioic acid was blocked by TGF-βs neutralizing bodies in this cell culture model. However, when other growth factor antibodies, such as FGF antibody, were added, the neuroprotective effect of 2-(phosphonomethyl)-pentanedioic acid was not reversed in culture.

TGF-β1 [1] = test: TGF-β1 concentration in ischemic cell cultures; format: cell-based; conditions: added to ischemic cultures (20-minute ischemia)
Excerpt: as §1

mice = test: In vivo toxicity study in mice; conditions: for Survival Rate After 5 days (%): injected
Excerpt: The in vivo toxicological effect of NAALADase inhibition has been examined in mice. […] Representative disclosure may be found in U.S. Pat. Nos. 5,672,592, 5,795,877, 5,863,536 and 5,880,112, and allowed U.S. patent applications Ser. Nos. 08/825,997, 08/833,628, 08/835,572 and 08/842,360, for which the issue fees have been paid, the entire contents of which patents and applications are herein incorporated by reference.
The mice were observed two times per day for 5 consecutive days.

[2] = tested on: middle cerebral artery occlusion (MCAO) in rats; test: Neuroprotection following middle cerebral artery occlusion (MCAO) in rats; format: in vivo
Excerpt: The effect of TGF-β neutralizing antibodies on the neuroprotection afforded by 2-(phosphonomethyl)-pentanedioic acid following middle cerebral artery occlusion (MCAO) in rats was also studied to give a more relevant in vivo model of stroke.
Thus, it was appreciated that the regulation of TGF-βs may have implications, not only in its utility in stroke, but also in other neurological and psychiatric diseases. In addition, this mechanism may have implications in myelination, prostate cancer, inflammation, diabetes, and angiogenesis.

TGF-β2 = TGF-β2 concentration in ischemic cell cultures; format: cell-based; conditions: added to ischemic cultures (20-minute ischemia)
Excerpt: as §1

TGF-β1 [3] = test: TGF-β1 levels by microdialysis in MCAO rats; format: in vivo; conditions: FIG. 6
[4] = target: T1, Myeloperoxidase (MPO) isolated from human polymorphonuclear leukocytes (Homo sapiens, UniProt P05164); conditions: guaiacol substrate, reference data; cited from earlier work
T1 construct: Myeloperoxidase (MPO) isolated from human polymorphonuclear leukocytes; purchased Calbiochem 475911; host or cells: human polymorphonuclear leukocytes (natural source)
T1 sequence (P05164 279-745 limits assumed): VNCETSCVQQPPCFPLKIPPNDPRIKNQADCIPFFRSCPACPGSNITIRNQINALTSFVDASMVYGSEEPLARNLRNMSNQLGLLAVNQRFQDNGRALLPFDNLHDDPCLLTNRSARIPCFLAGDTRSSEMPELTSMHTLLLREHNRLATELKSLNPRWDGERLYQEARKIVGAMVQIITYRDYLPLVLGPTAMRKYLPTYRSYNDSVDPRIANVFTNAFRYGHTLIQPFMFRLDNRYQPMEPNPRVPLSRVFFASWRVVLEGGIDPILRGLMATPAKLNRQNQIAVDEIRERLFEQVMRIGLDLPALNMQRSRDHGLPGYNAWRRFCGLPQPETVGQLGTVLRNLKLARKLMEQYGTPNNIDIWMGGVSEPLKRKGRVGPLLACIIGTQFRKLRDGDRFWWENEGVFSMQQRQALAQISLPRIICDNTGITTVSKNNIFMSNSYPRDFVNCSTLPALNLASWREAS
T1 sequence (P05164 165-273 limits assumed): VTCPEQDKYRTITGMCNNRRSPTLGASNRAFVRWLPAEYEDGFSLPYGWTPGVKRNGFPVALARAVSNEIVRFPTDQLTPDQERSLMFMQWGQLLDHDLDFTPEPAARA

[5] = listed as 2-(phosphonomethyl)-pentanedioic acid

| Compound | neuroprotective effect in presence of FGF antibody (ischemic cultures; [5]) | neuroprotective effect in presence of FGF antibody (ischemic cultures; listed as compound 3) | neuroprotective effect in presence of TGF-β neutralizing antibodies (ischemic cultures; [5]) | neuroprotective effect in presence of TGF-β neutralizing antibodies (ischemic cultures; listed as compound 3) | level of TGF-β1 (TGF-β1 [1]) | Survival Rate After 5 days (%) (mice; dose 1 mg/kg) | Survival Rate After 5 days (%) (mice; dose 5 mg/kg) | Survival Rate After 5 days (%) (mice; dose 10 mg/kg) | Survival Rate After 5 days (%) (mice; dose 30 mg/kg) | Survival Rate After 5 days (%) (mice; dose 100 mg/kg) | Survival Rate After 5 days (%) (mice; dose 300 mg/kg) | Survival Rate After 5 days (%) (mice; dose 500 mg/kg) | toxicological effect in vivo (mice; observed for 5 days) | neuroprotection ([2]; MCAO rats) | neuroprotective effect after TGF-β neutralizing antibodies ([2]; MCAO rats pre-treated with TGF-β neutralizing antibodies, FIG. 5) | level of TGF-β2 (TGF-β2) | TGF-β1 during occlusion and reperfusion (TGF-β1 [3]) | pIC50 [4] |
| --- | --- | --- | --- | --- | --- | --- | --- | --- | --- | --- | --- | --- | --- | --- | --- | --- | --- | --- |
| O=C(O)CCC(CP(=O)(O)O)C(=O)O (stereo not drawn) [Compound 3, 2-(phosphonomethyl)-pentanedioic acid] | not reversed | non-reversal | blocked | reversal | increased significantly | 100 | 100 | 100 | 100 | 100 | 100 | 66.7 | non-toxic | provided neuroprotection | significantly attenuated | increased significantly | significant rise | – |
| CC(Cc1ccc(O)c(O)c1)C(C)Cc1ccc(O)c(O)c1 (stereo not drawn) [NDGA (Nordihydroguaretic Acid), Nordihydroguaretic Acid] | – | – | – | – | – | – | – | – | – | – | – | – | – | – | – | – | – | 6.00 |
